We go through 41 compounds from patent publication US7902252B2, “Inhibitors of D-amino acid oxidase” (Sepracor, Inc., priority 2007, dated 2011).

Chain of Human DAAO (P14920 whole entry): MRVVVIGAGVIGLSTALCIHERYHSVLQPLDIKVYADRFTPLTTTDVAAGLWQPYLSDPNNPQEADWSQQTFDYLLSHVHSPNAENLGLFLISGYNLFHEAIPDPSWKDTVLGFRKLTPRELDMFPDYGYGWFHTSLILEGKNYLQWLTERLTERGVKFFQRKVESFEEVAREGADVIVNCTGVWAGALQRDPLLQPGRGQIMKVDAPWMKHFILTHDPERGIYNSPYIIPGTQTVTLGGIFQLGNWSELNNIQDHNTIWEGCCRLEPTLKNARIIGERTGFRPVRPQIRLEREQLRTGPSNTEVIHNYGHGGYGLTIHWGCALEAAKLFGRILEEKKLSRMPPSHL

The target in the test is Human DAAO (Homo sapiens, UniProt P14920). As to the kind of experiment: D-Amino Acid Oxidase enzyme assay (D-serine, horseradish peroxidase/Amplex Red coupled fluorescence). The format is biochemical. To be noted: D-serine 5 mM, pH 7.4. The protocol:
DAAO enzyme activity was measured using the substrate D-serine at its Michaelis-Menton Km of 5 mM. The rate of oxidation is measured as a rate of production of hydrogen peroxide, which was detected using the enzyme horseradish peroxidase (Sigma cat. No. P-8375). This coupled reaction uses the enzyme substrate Amplex Red (Molecular Probes), which is converted to the fluorescent reaction product, resorufin (excitation 530-560 nm; emission ˜590 nm). Although DAAO has a higher pH optimum, all reagents were prepared in 50 mM sodium phosphate buffer at pH 7.4 and inhibition curves were generated at this pH.
The final concentrations of components in 200 μl total volume per well (black clear-bottom 96-well plate, Costar) were:
(a) Horseradish peroxidase: 4 Units per mL
(d) Amplex Red reagent: 50 uM
The reactions were initiated by addition of DAAO enzyme and the fluorescence was monitored. H2O2 was added at 16 uM final concentration to a control well on each plate to test for compound interference with a coupled enzyme. Inhibition curves were generated in the presence of varying concentrations of the inhibitor and IC50 values were calculated for each inhibitor.
Usually IC50 stands for the concentration needed to halve the response being measured. A low value points to higher potency. Turning to `O=C(O)c1cc2c([nH]1)C(=O)CC2` [Compound 24, 6-oxo-1,4,5,6-tetrahydro-cyclopenta[b]pyrrole-2-carboxylic acid], the half-inhibitory concentration (IC50) is no more than 1 µM. With `O=C(O)c1cc2c([nH]1)C(Cc1ccccc1)CC2` (centres unmarked) [Compound 26, 6-benzyl-1,4,5,6-tetrahydrocyclopenta[b]pyrrole-2-carboxylic acid] the figure was no more than 0.1 µM; with `O=C(O)c1cc2c([nH]1)C(CCc1ccccc1)CC2` (centres unmarked) [Compound 27, 6-phenethyl-1,4,5,6-tetrahydrocyclopenta[b]pyrrole-2-carboxylic acid], no more than 1 µM; with `O=C(O)c1cc2c([nH]1)CCCC2` [Compound 30, 4,5,6,7-tetrahydro-1H-indole-2-carboxylic acid], no more than 1 µM. With `Cc1c(C(=O)O)[nH]c2c1C(=O)CCC2` [Compound 31, 3-methyl-4-oxo-4,5,6,7-tetrahydro-1H-indole-2-carboxylic acid] the figure was no more than 100 µM. With `O=C(O)c1cc2c([nH]1)CCCC2Cc1ccccc1` (centres unmarked) [Compound 32, 4-benzyl-4,5,6,7-tetrahydro-1H-indole-2-carboxylic acid] the figure was no more than 100 µM; with `CC(C)c1ccc(CC2CCc3[nH]c(C(=O)O)cc32)cc1` (centres unmarked) [Compound 33, 4-(4-isopropylbenzyl)-1,4,5,6-tetrahydrocyclopenta[b]pyrrole-2-carboxylic acid], no more than 1 µM. In the case of `COc1ccc(CCC2CCc3[nH]c(C(=O)O)cc32)cc1` (centres unmarked) [Compound 34, 4-(4-methoxyphenethyl)-1,4,5,6-tetrahydrocyclopenta[b]pyrrole-2-carboxylic acid], the half-maximal inhibitory concentration (IC50) is no more than 100 µM. With `CC(C)(CC1CCc2[nH]c(C(=O)O)cc21)c1ccccc1` (centres unmarked) [Compound 35, 4-(2-methyl-2-phenylpropyl)-1,4,5,6-tetrahydrocyclopenta[b]pyrrole-2-carboxylic acid] the figure was no more than 100 µM; with `O=C(O)c1cc2c([nH]1)CCC2CCCc1ccccc1` (centres unmarked) [Compound 36, 4-(3-phenylpropyl)-1,4,5,6-tetrahydrocyclopenta[b]pyrrole-2-carboxylic acid], no more than 1 µM; with `Cc1ccc(C2CCc3[nH]c(C(=O)O)cc32)cc1` (centres unmarked) [Compound 37, 4-p-tolyl-1,4,5,6-tetrahydrocyclopenta[b]pyrrole-2-carboxylic acid], no more than 1 µM. The result for `O=C(O)c1cc2c([nH]1)CCC2CC(F)(F)F` (centres unmarked) [Compound 38, 4-(2,2,2-trifluoroethyl)-1,4,5,6-tetrahydrocyclopenta[b]pyrrole-2-carboxylic acid] reads no more than 100 µM. With `O=C(O)c1cc2c([nH]1)CCC2Cc1cc(F)cc(Cl)c1` (centres unmarked) [Compound 55, 4-(3-chloro-5-fluorobenzyl)-1,4,5,6-tetrahydrocyclopenta[b]pyrrole-2-carboxylic acid] the figure was no more than 0.1 µM; with `O=C(O)c1cc2c([nH]1)CCC2Cc1cccc(Cl)c1` (centres unmarked) [Compound 56, 4-(3-chlorobenzyl)-1,4,5,6-tetrahydrocyclopenta[b]pyrrole-2-carboxylic acid], no more than 0.1 µM.

Turning to `COc1ccc(CC2CCc3[nH]c(C(=O)O)cc32)cc1OC` (centres unmarked) [Compound 69, 4-(3,4-dimethoxybenzyl)-1,4,5,6-tetrahydrocyclopenta[b]pyrrole-2-carboxylic acid], the IC50 was no more than 1 µM. The result for `Cc1ccc(CC2CCc3[nH]c(C(=O)O)cc32)cc1C` (centres unmarked) [Compound 71, 4-(3,4-dimethylbenzyl)-1,4,5,6-tetrahydrocyclopenta[b]pyrrole-2-carboxylic acid] reads no more than 1 µM; that for `Cc1cc(C)cc(CC2CCc3[nH]c(C(=O)O)cc32)c1` (centres unmarked) [Compound 72, 4-(3,5-dimethylbenzyl)-1,4,5,6-tetrahydrocyclopenta[b]pyrrole-2-carboxylic acid], no more than 100 µM; that for `O=C(O)c1cc2c([nH]1)CCC2Cc1cccc(C2CC2)c1` (centres unmarked) [Compound 73, 4-(3-cyclopropylbenzyl)-1,4,5,6-tetrahydrocyclopenta[b]pyrrole-2-carboxylic acid], no more than 0.1 µM.

Consider `C#Cc1cccc(CC2CCc3[nH]c(C(=O)O)cc32)c1` (centres unmarked) [Compound 74, 4-(3-ethynylbenzyl)-1,4,5,6-tetrahydrocyclopenta[b]pyrrole-2-carboxylic acid], for which the IC50 was no more than 0.1 µM. In turn, `CC(=O)c1cccc(CC2CCc3[nH]c(C(=O)O)cc32)c1` (centres unmarked) [Compound 76, 4-(3-acetylbenzyl)-1,4,5,6-tetrahydrocyclopenta[b]pyrrole-2-carboxylic acid] registered an IC50 of no more than 1 µM. With `NC(=O)c1cccc(CC2CCc3[nH]c(C(=O)O)cc32)c1` (centres unmarked) [Compound 77, 4-(3-carbamoylbenzyl)-1,4,5,6-tetrahydrocyclopenta[b]pyrrole-2-carboxylic acid] the figure was no more than 1 µM; with `O=C(O)c1cc2c([nH]1)CCC2Cc1ccc(-c2ccccc2)cc1` (centres unmarked) [Compound 81, 4-(biphenyl-4-ylmethyl)-1,4,5,6-tetrahydrocyclopenta[b]pyrrole-2-carboxylic acid], no more than 1 µM. For the compound `O=C(O)c1cc2c([nH]1)CCC2Cc1cccc(-c2ccccc2)c1` (centres unmarked) [Compound 82, 4-(biphenyl-3-ylmethyl)-1,4,5,6-tetrahydrocyclopenta[b]pyrrole-2-carboxylic acid], the half-inhibitory concentration (IC50) is no more than 1 µM.

The compound `O=C(O)c1cc2c([nH]1)CCC2Cc1cccc(-c2cccnc2)c1` (centres unmarked) [Compound 83, 4-(3-(pyridin-3-yl)benzyl)-1,4,5,6-tetrahydrocyclopenta[b]pyrrole-2-carboxylic acid] yielded an IC50 of no more than 1 µM. The result for `O=C(O)c1cc2c([nH]1)CCC2Cc1cccc(-c2ccc(C(F)(F)F)cc2)c1` (centres unmarked) [Compound 84, 4-((4′-(trifluoromethyl)biphenyl-3-yl)methyl)-1,4,5,6-tetrahydrocyclopenta[b]pyrrole-2-carboxylic acid] reads no more than 1 µM; that for `O=C(O)c1cc2c([nH]1)CCC2Cc1cccc(-c2ccc(O)cc2)c1` (centres unmarked) [Compound 85, 4-((4′-hydroxybiphenyl-3-yl)methyl)-1,4,5,6-tetrahydrocyclopenta[b]pyrrole-2-carboxylic acid], no more than 100 µM. With `O=C(O)c1cc2c([nH]1)CCC2Cc1cccc(-c2ccc(CO)cc2)c1` (centres unmarked) [Compound 86, 4-((4′-(hydroxymethyl)biphenyl-3-yl)methyl)-1,4,5,6-tetrahydrocyclopenta[b]pyrrole-2-carboxylic acid] the figure was no more than 1 µM; with `O=C(O)c1cc2c([nH]1)CCC2Cc1cccc(C2CCOC2)c1` (centres unmarked) [Compound 90, 4-(3-(tetrahydrofuran-3-yl)benzyl)-1,4,5,6-tetrahydrocyclopenta[b]pyrrole-2-carboxylic acid], no more than 1 µM; with `O=C(O)c1cc2c([nH]1)CCC2c1ccc(Cl)cc1` (centres unmarked) [Compound 101, 4-(4-chlorophenyl)-1,4,5,6-tetrahydrocyclopenta[b]pyrrole-2-carboxylic acid], no more than 0.1 µM. Consider `O=C(O)c1cc2c([nH]1)CCC2c1cccc(Cl)c1` (centres unmarked) [Compound 102, 4-(3-chlorophenyl)-1,4,5,6-tetrahydrocyclopenta[b]pyrrole-2-carboxylic acid], for which the IC50 is no more than 0.1 µM. `O=C(O)c1cc2c([nH]1)CCC2c1cccc(Br)c1` (centres unmarked) [Compound 103, 4-(3-bromophenyl)-1,4,5,6-tetrahydrocyclopenta[b]pyrrole-2-carboxylic acid] showed an IC50 of no more than 0.1 µM. Consider `Cc1cc(C)cc(C2CCc3[nH]c(C(=O)O)cc32)c1` (centres unmarked) [Compound 104, 4-(3,5-dimethylphenyl)-1,4,5,6-tetrahydrocyclopenta[b]pyrrole-2-carboxylic acid], for which the IC50 was no more than 100 µM.

`O=C(O)c1cc2c([nH]1)CCC2c1ccc(-c2ccccc2)cc1` (centres unmarked) [Compound 106, 4-(biphenyl-4-yl)-1,4,5,6-tetrahydrocyclopenta[b]pyrrole-2-carboxylic acid] gave an IC50 of no more than 100 µM.

`O=C(O)c1cc2c([nH]1)CCC2c1ccc(Cc2ccccc2)cc1` (centres unmarked) [Compound 107, 4-(4-benzylphenyl)-1,4,5,6-tetrahydrocyclopenta[b]pyrrole-2-carboxylic acid] registered an IC50 of no more than 1 µM.

In turn, `O=C(O)c1cc2c([nH]1)CCC2NCc1ccc(Cl)cc1` (centres unmarked) [Compound 108, 4-(4-chlorobenzylamino)-1,4,5,6-tetrahydrocyclopenta[b]pyrrole-2-carboxylic acid] showed a concentration for half-maximal inhibition (IC50) of no more than 100 µM. With `CC1CCc2cc(C(=O)O)[nH]c21` (centres unmarked) [Compound 109, 6-methyl-1,4,5,6-tetrahydrocyclopenta[b]pyrrole-2-carboxylic acid] the figure was no more than 1 µM. With `CCCC1CCc2cc(C(=O)O)[nH]c21` (centres unmarked) [Compound 110, 6-propyl-1,4,5,6-tetrahydrocyclopenta[b]pyrrole-2-carboxylic acid] the figure was no more than 1 µM; with `O=C(O)c1cc2c([nH]1)C(c1cccc(F)c1)CC2` (centres unmarked) [Compound 111, 6-(3-fluorophenyl)-1,4,5,6-tetrahydrocyclopenta[b]pyrrole-2-carboxylic acid], no more than 1 µM. The result for `O=C(O)c1cc2c([nH]1)C(c1ccc(F)c(F)c1)CC2` (centres unmarked) [Compound 112, 6-(3,4-difluorophenyl)-1,4,5,6-tetrahydrocyclopenta[b]pyrrole-2-carboxylic acid] reads no more than 1 µM; that for `O=C(O)c1cc2c([nH]1)C(c1ccc(Cl)cc1)CC2` (centres unmarked) [Compound 113, 6-(4-chlorophenyl)-1,4,5,6-tetrahydrocyclopenta[b]pyrrole-2-carboxylic acid], no more than 1 µM; that for `O=C(O)c1cc2c([nH]1)C(c1cccc(Cl)c1)CC2` (centres unmarked) [Compound 114, 6-(3-chlorophenyl)-1,4,5,6-tetrahydrocyclopenta[b]pyrrole-2-carboxylic acid], no more than 1 µM.
